From PubChem BioAssay (NCI)
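Tested at 5 concentrations; 48 h exposure; 96-well plates; endpoints linearly interpolated, else capped at highest concentration. The concentration for 50% growth inhibition is given as GI50. TGI marks complete inhibition of growth.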

What was measured:
Assay in all cases: NCI tumour cell line growth inhibition, 48 h
RPMI-8226 leukemia = test system: RPMI-8226 leukemia
MOLT-4 leukemia = test system: MOLT-4 leukemia
SR leukemia = test system: SR leukemia
U251 CNS = test system: U251 CNS
SF-539 CNS = test system: SF-539 CNS
EKVX NSCLC = test system: EKVX NSCLC
UACC-257 melanoma = test system: UACC-257 melanoma
K-562 leukemia = test system: K-562 leukemia
786-0 renal = test system: 786-0 renal
NCI/ADR-RES ovarian = test system: NCI/ADR-RES ovarian
LOX IMVI melanoma = test system: LOX IMVI melanoma
PC-3 prostate = test system: PC-3 prostate
TK-10 renal = test system: TK-10 renal
SW-620 colon = test system: SW-620 colon
MALME-3M melanoma = test system: MALME-3M melanoma
NCI-H460 lung = test system: NCI-H460 lung
HCT-116 colon = test system: HCT-116 colon
SN12C renal = test system: SN12C renal
SF-268 CNS = test system: SF-268 CNS
OVCAR-5 ovarian = test system: OVCAR-5 ovarian
SK-OV-3 ovarian = test system: SK-OV-3 ovarian
NCI-H522 lung = test system: NCI-H522 lung
MDA-MB-231 breast = test system: MDA-MB-231 breast
OVCAR-8 ovarian = test system: OVCAR-8 ovarian
SNB-19 CNS = test system: SNB-19 CNS
COLO 205 colon = test system: COLO 205 colon
CAKI-1 renal = test system: CAKI-1 renal
DU-145 prostate = test system: DU-145 prostate
T-47D breast = test system: T-47D breast
ACHN renal = test system: ACHN renal
MCF7 breast = test system: MCF7 breast
KM12 colon = test system: KM12 colon
CCRF-CEM leukemia = test system: CCRF-CEM leukemia
SF-295 CNS = test system: SF-295 CNS
A498 renal = test system: A498 renal
HCT-15 colon = test system: HCT-15 colon
SK-MEL-28 melanoma = test system: SK-MEL-28 melanoma
NCI-H226 lung = test system: NCI-H226 lung
MDA-MB-435 = test system: MDA-MB-435
UO-31 renal = test system: UO-31 renal
HOP-62 NSCLC = test system: HOP-62 NSCLC
NCI-H23 lung = test system: NCI-H23 lung
HL-60(TB) leukemia = test system: HL-60(TB) leukemia
UACC-62 melanoma = test system: UACC-62 melanoma
RXF 393 renal = test system: RXF 393 renal
IGROV1 ovarian = test system: IGROV1 ovarian
HCC-2998 colon = test system: HCC-2998 colon
SK-MEL-5 melanoma = test system: SK-MEL-5 melanoma
BT-549 breast = test system: BT-549 breast
OVCAR-4 ovarian = test system: OVCAR-4 ovarian
M14 melanoma = test system: M14 melanoma
SK-MEL-2 melanoma = test system: SK-MEL-2 melanoma
HS 578T breast = test system: HS 578T breast
A549 NSCLC = test system: A549 NSCLC
SNB-75 CNS = test system: SNB-75 CNS
HT29 colon = test system: HT29 colon
OVCAR-3 ovarian = test system: OVCAR-3 ovarian

COc1ccc(/C=C/C(=O)c2c(O)c(C)c(O)c3c2OC2=CC(O)=C(C(C)=O)C(=O)[C@]23C)cc1
GI50 (RPMI-8226 leukemia): 596 nM | TGI (RPMI-8226 leukemia): 1880 nM | GI50 (MOLT-4 leukemia): 698 nM | TGI (MOLT-4 leukemia): > 17.5 µM | GI50 (SR leukemia): 1170 nM | TGI (SR leukemia): > 17.5 µM | GI50 (U251 CNS): 801 nM | TGI (U251 CNS): 4.21 µM | GI50 (SF-539 CNS): 2710 nM | TGI (SF-539 CNS): 6.44 µM | GI50 (EKVX NSCLC): 676 nM | TGI (EKVX NSCLC): 5.32 µM | GI50 (UACC-257 melanoma): 3.11 µM | TGI (UACC-257 melanoma): 10 µM | GI50 (K-562 leukemia): 627 nM | TGI (K-562 leukemia): > 17.5 µM | GI50 (786-0 renal): 2440 nM | TGI (786-0 renal): 7.59 µM | GI50 (NCI/ADR-RES ovarian): 956 nM | TGI (NCI/ADR-RES ovarian): 4.58 µM | GI50 (LOX IMVI melanoma): 1800 nM | TGI (LOX IMVI melanoma): 4.57 µM | GI50 (PC-3 prostate): 611 nM | TGI (PC-3 prostate): 2340 nM | GI50 (TK-10 renal): 597 nM | TGI (TK-10 renal): 5.1 µM | GI50 (SW-620 colon): 659 nM | TGI (SW-620 colon): 3.79 µM | GI50 (MALME-3M melanoma): 2230 nM | TGI (MALME-3M melanoma): 5.22 µM | GI50 (NCI-H460 lung): 898 nM | TGI (NCI-H460 lung): 3.71 µM | GI50 (HCT-116 colon): 610 nM | TGI (HCT-116 colon): 2490 nM | GI50 (SN12C renal): 603 nM | TGI (SN12C renal): 2480 nM | GI50 (SF-268 CNS): 871 nM | TGI (SF-268 CNS): 4.72 µM | GI50 (OVCAR-5 ovarian): 4.2 µM | TGI (OVCAR-5 ovarian): > 17.5 µM | GI50 (SK-OV-3 ovarian): 1790 nM | TGI (SK-OV-3 ovarian): 7.05 µM | GI50 (NCI-H522 lung): 511 nM | TGI (NCI-H522 lung): 2330 nM | GI50 (MDA-MB-231 breast): 1040 nM | TGI (MDA-MB-231 breast): 5.66 µM | GI50 (OVCAR-8 ovarian): 631 nM | TGI (OVCAR-8 ovarian): 2350 nM | GI50 (SNB-19 CNS): 1560 nM | TGI (SNB-19 CNS): 7.8 µM | GI50 (COLO 205 colon): 1930 nM | TGI (COLO 205 colon): 4.54 µM | GI50 (CAKI-1 renal): 694 nM | TGI (CAKI-1 renal): 8.19 µM | GI50 (DU-145 prostate): 1230 nM | TGI (DU-145 prostate): 7.84 µM | GI50 (T-47D breast): 521 nM | TGI (T-47D breast): 2660 nM | GI50 (ACHN renal): 1030 nM | TGI (ACHN renal): 10.4 µM | GI50 (MCF7 breast): 610 nM | TGI (MCF7 breast): 3.8 µM | GI50 (KM12 colon): 1040 nM | TGI (KM12 colon): 5.9 µM | GI50 (CCRF-CEM leukemia): 702 nM | TGI (CCRF-CEM leukemia): 9.97 µM | GI50 (SF-295 CNS): 821 nM | TGI (SF-295 CNS): 5.11 µM | GI50 (A498 renal): 770 nM | TGI (A498 renal): 2980 nM | GI50 (HCT-15 colon): 706 nM | TGI (HCT-15 colon): 3.48 µM | GI50 (SK-MEL-28 melanoma): 1150 nM | TGI (SK-MEL-28 melanoma): 4.72 µM | GI50 (NCI-H226 lung): 2610 nM | TGI (NCI-H226 lung): 6.75 µM | GI50 (MDA-MB-435): 1920 nM | TGI (MDA-MB-435): 4.11 µM | GI50 (UO-31 renal): 3.45 µM | TGI (UO-31 renal): 10.6 µM | GI50 (HOP-62 NSCLC): 1920 nM | TGI (HOP-62 NSCLC): 6.13 µM | GI50 (NCI-H23 lung): 598 nM | TGI (NCI-H23 lung): 3.13 µM | GI50 (HL-60(TB) leukemia): 603 nM | TGI (HL-60(TB) leukemia): 5.85 µM | GI50 (UACC-62 melanoma): 891 nM | TGI (UACC-62 melanoma): 3.48 µM | GI50 (RXF 393 renal): 1960 nM | TGI (RXF 393 renal): 4.99 µM | GI50 (IGROV1 ovarian): 932 nM | TGI (IGROV1 ovarian): 8.02 µM | GI50 (HCC-2998 colon): 1960 nM | TGI (HCC-2998 colon): 5.12 µM | GI50 (SK-MEL-5 melanoma): 1290 nM | TGI (SK-MEL-5 melanoma): 3.61 µM | GI50 (BT-549 breast): 931 nM | TGI (BT-549 breast): 5.26 µM | GI50 (OVCAR-4 ovarian): 2210 nM | TGI (OVCAR-4 ovarian): 10 µM | GI50 (M14 melanoma): 925 nM | TGI (M14 melanoma): 4.82 µM | GI50 (SK-MEL-2 melanoma): 961 nM | TGI (SK-MEL-2 melanoma): 3.72 µM | GI50 (HS 578T breast): 2900 nM | TGI (HS 578T breast): 8.76 µM | GI50 (A549 NSCLC): 1330 nM | TGI (A549 NSCLC): 7.26 µM | GI50 (SNB-75 CNS): 2800 nM | TGI (SNB-75 CNS): 5.95 µM | GI50 (HT29 colon): 860 nM | TGI (HT29 colon): 4.33 µM | GI50 (OVCAR-3 ovarian): 649 nM | TGI (OVCAR-3 ovarian): 2830 nM
